Experimental data reported in ChEMBL document CHEMBL1154057, “Synthesis and antibacterial activity of novel 15-membered macrolide derivatives: 4''-carbamate, 11,12-cyclic carbonate-4''-carbamate and 11,4''-di-O-arylcarbamoyl analogs of azithromycin” (2009).
Converted amounts (≈) assume the structure as drawn.

Tests used:
Streptococcus pneumoniae [1] = experiment: Antibacterial activity against erythromycin-resistant Streptococcus pneumoniae A22072 encoded by mef gene
Streptococcus pneumoniae [2] = experiment: Antibacterial activity against erythromycin-resistant Streptococcus pneumoniae B1 encoded by erm gene
Streptococcus pneumoniae [3] = experiment: Antibacterial activity against erythromycin-resistant Streptococcus pneumoniae AB11 encoded by erm and mef gene
Streptococcus pneumoniae [4] = experiment: Antibacterial activity against erythromycin-susceptible Streptococcus pneumoniae ATCC 49619

Row | Compound | MIC (Streptococcus pneumoniae [1]) | MIC (Streptococcus pneumoniae [2]) | MIC (Streptococcus pneumoniae [3]) | MIC (Streptococcus pneumoniae [4])
1 | CC[C@H]1OC(=O)[C@H](C)[C@@H](O[C@H]2C[C@@](C)(OC)[C@@H](OC(=O)NCc3ccc(OC)cc3)[C@H](C)O2)[C@H](C)[C@@H](O[C@@H]2O[C@H](C)C[C@H](N(C)C)[C@H]2O)[C@@](C)(O)C[C@@H](C)CN(C)[C@H](C)[C@H]2OC(=O)O[C@@]21C | 0.25 µg/mL (≈ 0.266 µM) | 8 µg/mL (≈ 8.53 µM) | 16 µg/mL (≈ 17.1 µM) | < 0.03 µg/mL
2 | CCCNC(=O)O[C@H]1[C@H](C)O[C@@H](O[C@H]2[C@H](C)[C@@H](O[C@@H]3O[C@H](C)C[C@H](N(C)C)[C@H]3O)[C@@](C)(O)C[C@@H](C)CN(C)[C@H](C)[C@H]3OC(=O)O[C@]3(C)[C@@H](CC)OC(=O)[C@@H]2C)C[C@@]1(C)OC | 0.12 µg/mL (≈ 0.14 µM) | 16 µg/mL (≈ 18.6 µM) | 16 µg/mL (≈ 18.6 µM) | 0.06 µg/mL (≈ 0.0698 µM)
3 | CC[C@H]1OC(=O)[C@H](C)[C@@H](O[C@H]2C[C@@](C)(OC)[C@@H](OC(=O)NCCc3ccccc3)[C@H](C)O2)[C@H](C)[C@@H](O[C@@H]2O[C@H](C)C[C@H](N(C)C)[C@H]2O)[C@@](C)(O)C[C@@H](C)CN(C)[C@H](C)[C@H]2OC(=O)O[C@@]21C | 0.06 µg/mL (≈ 0.0651 µM) | 8 µg/mL (≈ 8.68 µM) | 2 µg/mL (≈ 2.17 µM) | 0.06 µg/mL (≈ 0.0651 µM)
4 | CCCCNC(=O)O[C@H]1[C@H](C)O[C@@H](O[C@H]2[C@H](C)[C@@H](O[C@@H]3O[C@H](C)C[C@H](N(C)C)[C@H]3O)[C@@](C)(O)C[C@@H](C)CN(C)[C@H](C)[C@H]3OC(=O)O[C@]3(C)[C@@H](CC)OC(=O)[C@@H]2C)C[C@@]1(C)OC | 1 µg/mL (≈ 1.14 µM) | 8 µg/mL (≈ 9.15 µM) | 16 µg/mL (≈ 18.3 µM) | 0.12 µg/mL (≈ 0.137 µM)
5 | CC[C@H]1OC(=O)[C@H](C)[C@@H](O[C@H]2C[C@@](C)(OC)[C@@H](OC(=O)NCc3ccc(F)cc3)[C@H](C)O2)[C@H](C)[C@@H](O[C@@H]2O[C@H](C)C[C@H](N(C)C)[C@H]2O)[C@@](C)(O)C[C@@H](C)CN(C)[C@H](C)[C@@H](OC(=O)NCCc2ccccc2)[C@]1(C)O | 0.06 µg/mL (≈ 0.0573 µM) | 0.25 µg/mL (≈ 0.239 µM) | 32 µg/mL (≈ 30.6 µM) | < 0.03 µg/mL
6 | CC[C@H]1OC(=O)[C@H](C)[C@@H](O[C@H]2C[C@@](C)(OC)[C@@H](OC(=O)NCCc3ccccc3Cl)[C@H](C)O2)[C@H](C)[C@@H](O[C@@H]2O[C@H](C)C[C@H](N(C)C)[C@H]2O)[C@@](C)(O)C[C@@H](C)CN(C)[C@H](C)[C@@H](OC(=O)NCCc2ccc(O)cc2)[C@]1(C)O | 0.06 µg/mL (≈ 0.0549 µM) | 0.25 µg/mL (≈ 0.229 µM) | 16 µg/mL (≈ 14.6 µM) | < 0.03 µg/mL
7 | CC[C@H]1OC(=O)[C@H](C)[C@@H](O[C@H]2C[C@@](C)(OC)[C@@H](OC(=O)NCCc3ccc(O)cc3)[C@H](C)O2)[C@H](C)[C@@H](O[C@@H]2O[C@H](C)C[C@H](N(C)C)[C@H]2O)[C@@](C)(O)C[C@@H](C)CN(C)[C@H](C)[C@@H](OC(=O)NCCc2ccccc2Cl)[C@]1(C)O | 0.25 µg/mL (≈ 0.229 µM) | 0.25 µg/mL (≈ 0.229 µM) | 16 µg/mL (≈ 14.6 µM) | < 0.03 µg/mL
8 | CCCCCNC(=O)O[C@@H]1[C@@H](C)N(C)C[C@H](C)C[C@](C)(O)[C@H](O[C@@H]2O[C@H](C)C[C@H](N(C)C)[C@H]2O)[C@@H](C)[C@H](O[C@H]2C[C@@](C)(OC)[C@@H](OC(=O)NCCc3ccccc3Cl)[C@H](C)O2)[C@@H](C)C(=O)O[C@H](CC)[C@@]1(C)O | 0.5 µg/mL (≈ 0.479 µM) | 0.5 µg/mL (≈ 0.479 µM) | 16 µg/mL (≈ 15.3 µM) | < 0.03 µg/mL
9 | CC[C@H]1OC(=O)[C@H](C)[C@@H](O[C@H]2C[C@@](C)(OC)[C@@H](OC(=O)NCCc3ccc(O)cc3)[C@H](C)O2)[C@H](C)[C@@H](O[C@@H]2O[C@H](C)C[C@H](N(C)C)[C@H]2O)[C@@](C)(O)C[C@@H](C)CN(C)[C@H](C)[C@H]2OC(=O)O[C@@]21C | 1 µg/mL (≈ 1.07 µM) | 8 µg/mL (≈ 8.53 µM) | 4 µg/mL (≈ 4.26 µM) | < 0.03 µg/mL
10 | CC[C@H]1OC(=O)[C@H](C)[C@@H](O[C@H]2C[C@@](C)(OC)[C@@H](OC(=O)NCc3ccc(F)cc3)[C@H](C)O2)[C@H](C)[C@@H](O[C@@H]2O[C@H](C)C[C@H](N(C)C)[C@H]2O)[C@@](C)(O)C[C@@H](C)CN(C)[C@H](C)[C@H]2OC(=O)O[C@@]21C | 0.06 µg/mL (≈ 0.0648 µM) | 8 µg/mL (≈ 8.64 µM) | 4 µg/mL (≈ 4.32 µM) | 0.06 µg/mL (≈ 0.0648 µM)
11 | CC[C@H]1OC(=O)[C@H](C)[C@@H](O[C@H]2C[C@@](C)(OC)[C@@H](OC(=O)NCCc3ccccc3Cl)[C@H](C)O2)[C@H](C)[C@@H](O[C@@H]2O[C@H](C)C[C@H](N(C)C)[C@H]2O)[C@@](C)(O)C[C@@H](C)CN(C)[C@H](C)[C@H]2OC(=O)O[C@@]21C | 0.25 µg/mL (≈ 0.261 µM) | 8 µg/mL (≈ 8.36 µM) | 2 µg/mL (≈ 2.09 µM) | 0.06 µg/mL (≈ 0.0627 µM)
12 | CC[C@H]1OC(=O)[C@H](C)[C@@H](O[C@H]2C[C@@](C)(OC)[C@@H](OC(=O)NCc3ccccc3)[C@H](C)O2)[C@H](C)[C@@H](O[C@@H]2O[C@H](C)C[C@H](N(C)C)[C@H]2O)[C@@](C)(O)C[C@@H](C)CN(C)[C@H](C)[C@H]2OC(=O)O[C@@]21C | 0.12 µg/mL (≈ 0.132 µM) | 8 µg/mL (≈ 8.81 µM) | 8 µg/mL (≈ 8.81 µM) | < 0.03 µg/mL
13 | CC[C@H]1OC(=O)[C@H](C)[C@@H](O[C@H]2C[C@@](C)(OC)[C@@H](OC(=O)NCCc3ccc4c(c3)OCO4)[C@H](C)O2)[C@H](C)[C@@H](O[C@@H]2O[C@H](C)C[C@H](N(C)C)[C@H]2O)[C@@](C)(O)C[C@@H](C)CN(C)C(C)[C@H]2OC(=O)O[C@@]21C (stereo partly specified) | 0.06 µg/mL (≈ 0.0621 µM) | 4 µg/mL (≈ 4.14 µM) | 2 µg/mL (≈ 2.07 µM) | < 0.03 µg/mL
14 | C=CCNC(=O)O[C@H]1[C@H](C)O[C@@H](O[C@H]2[C@H](C)[C@@H](O[C@@H]3O[C@H](C)C[C@H](N(C)C)[C@H]3O)[C@@](C)(O)C[C@@H](C)CN(C)[C@H](C)[C@H]3OC(=O)O[C@]3(C)[C@@H](CC)OC(=O)[C@@H]2C)C[C@@]1(C)OC | 1 µg/mL (≈ 1.17 µM) | 64 µg/mL (≈ 74.6 µM) | 128 µg/mL (≈ 149 µM) | 0.12 µg/mL (≈ 0.14 µM)
15 | CCCCCNC(=O)O[C@H]1[C@H](C)O[C@@H](O[C@H]2[C@H](C)[C@@H](O[C@@H]3O[C@H](C)C[C@H](N(C)C)[C@H]3O)[C@@](C)(O)C[C@@H](C)CN(C)[C@H](C)[C@H]3OC(=O)O[C@]3(C)[C@@H](CC)OC(=O)[C@@H]2C)C[C@@]1(C)OC | 8 µg/mL (≈ 9.01 µM) | 16 µg/mL (≈ 18 µM) | 16 µg/mL (≈ 18 µM) | 0.06 µg/mL (≈ 0.0676 µM)
16 | CC[C@H]1OC(=O)[C@H](C)[C@@H](O[C@H]2C[C@@](C)(OC)[C@@H](OC(=O)NC(C)C)[C@H](C)O2)[C@H](C)[C@@H](O[C@@H]2O[C@H](C)C[C@H](N(C)C)[C@H]2O)[C@@](C)(O)C[C@@H](C)CN(C)[C@H](C)[C@H]2OC(=O)O[C@@]21C | 8 µg/mL (≈ 9.3 µM) | 16 µg/mL (≈ 18.6 µM) | 128 µg/mL (≈ 149 µM) | 0.12 µg/mL (≈ 0.14 µM)
17 | CC[C@H]1OC(=O)[C@H](C)[C@@H](O[C@H]2C[C@@](C)(OC)[C@@H](OC(=O)NC3CCCCC3)[C@H](C)O2)[C@H](C)[C@@H](O[C@@H]2O[C@H](C)C[C@H](N(C)C)[C@H]2O)[C@@](C)(O)C[C@@H](C)CN(C)[C@H](C)[C@H]2OC(=O)O[C@@]21C | 2 µg/mL (≈ 2.22 µM) | 16 µg/mL (≈ 17.8 µM) | 32 µg/mL (≈ 35.5 µM) | 0.06 µg/mL (≈ 0.0667 µM)
18 | CCCCNC(=O)O[C@@H]1[C@@H](C)N(C)C[C@H](C)C[C@](C)(O)[C@H](O[C@@H]2O[C@H](C)C[C@H](N(C)C)[C@H]2O)[C@@H](C)[C@H](O[C@H]2C[C@@](C)(OC)[C@@H](OC(=O)NCCc3ccc(O)cc3)[C@H](C)O2)[C@@H](C)C(=O)O[C@H](CC)[C@@]1(C)O | 1 µg/mL (≈ 0.989 µM) | 0.25 µg/mL (≈ 0.247 µM) | 128 µg/mL (≈ 127 µM) | < 0.03 µg/mL
19 | CC[C@H]1OC(=O)[C@H](C)[C@@H](O[C@H]2C[C@@](C)(OC)[C@@H](OC(=O)NCCc3ccc(O)cc3)[C@H](C)O2)[C@H](C)[C@@H](O[C@@H]2O[C@H](C)C[C@H](N(C)C)[C@H]2O)[C@@](C)(O)C[C@@H](C)CN(C)[C@H](C)[C@@H](OC(=O)NCc2ccccc2)[C@]1(C)O | 0.12 µg/mL (≈ 0.115 µM) | 0.25 µg/mL (≈ 0.239 µM) | 128 µg/mL (≈ 122 µM) | < 0.03 µg/mL
20 | CCCCCNC(=O)O[C@@H]1[C@@H](C)N(C)C[C@H](C)C[C@](C)(O)[C@H](O[C@@H]2O[C@H](C)C[C@H](N(C)C)[C@H]2O)[C@@H](C)[C@H](O[C@H]2C[C@@](C)(OC)[C@@H](OC(=O)NCc3ccc(OC)cc3)[C@H](C)O2)[C@@H](C)C(=O)O[C@H](CC)[C@@]1(C)O | 1 µg/mL (≈ 0.975 µM) | 0.5 µg/mL (≈ 0.488 µM) | 32 µg/mL (≈ 31.2 µM) | 0.06 µg/mL (≈ 0.0585 µM)
21 | CCCCNC(=O)O[C@@H]1[C@@H](C)N(C)C[C@H](C)C[C@](C)(O)[C@H](O[C@@H]2O[C@H](C)C[C@H](N(C)C)[C@H]2O)[C@@H](C)[C@H](O[C@H]2C[C@@](C)(OC)[C@@H](OC(=O)NCc3ccc(OC)cc3)[C@H](C)O2)[C@@H](C)C(=O)O[C@H](CC)[C@@]1(C)O | 1 µg/mL (≈ 0.989 µM) | 0.5 µg/mL (≈ 0.494 µM) | 128 µg/mL (≈ 127 µM) | 0.06 µg/mL (≈ 0.0593 µM)
22 | CC[C@H]1OC(=O)[C@H](C)[C@@H](O[C@H]2C[C@@](C)(OC)[C@@H](OC(=O)NCc3ccc(F)cc3)[C@H](C)O2)[C@H](C)[C@@H](O[C@@H]2O[C@H](C)C[C@H](N(C)C)[C@H]2O)[C@@](C)(O)C[C@@H](C)CN(C)[C@H](C)[C@@H](OC(=O)NCCc2ccccc2Cl)[C@]1(C)O | 0.12 µg/mL (≈ 0.111 µM) | 0.25 µg/mL (≈ 0.231 µM) | 2 µg/mL (≈ 1.85 µM) | < 0.03 µg/mL
23 | CC[C@H]1OC(=O)[C@H](C)[C@@H](O[C@H]2C[C@@](C)(OC)[C@@H](OC(=O)NCCc3ccccc3Cl)[C@H](C)O2)[C@H](C)[C@@H](O[C@@H]2O[C@H](C)C[C@H](N(C)C)[C@H]2O)[C@@](C)(O)C[C@@H](C)CN(C)[C@H](C)[C@@H](OC(=O)NCc2ccccc2)[C@]1(C)O | 0.25 µg/mL (≈ 0.235 µM) | 0.25 µg/mL (≈ 0.235 µM) | 4 µg/mL (≈ 3.76 µM) | < 0.03 µg/mL
24 | CC[C@H]1OC(=O)[C@H](C)[C@@H](O[C@H]2C[C@@](C)(OC)[C@@H](OC(=O)NCCc3ccccc3Cl)[C@H](C)O2)[C@H](C)[C@@H](O[C@@H]2O[C@H](C)C[C@H](N(C)C)[C@H]2O)[C@@](C)(O)C[C@@H](C)CN(C)[C@H](C)[C@@H](OC(=O)NCc2ccc(F)cc2)[C@]1(C)O | 0.25 µg/mL (≈ 0.231 µM) | 0.25 µg/mL (≈ 0.231 µM) | 4 µg/mL (≈ 3.7 µM) | 0.06 µg/mL (≈ 0.0555 µM)
